How the values were obtained:
Assay type in all cases: in vivo
[1] = tested on: Phakopsora pachyrhizi; assay: Phakopsora pachyrhizi on soybean, preventive treatment; conditions: 264 h, 1 day preventive, triazole tolerant soybean rust strain, evaluated 11 days after application, compared to untreated, read-out: disease control
Experimental: Phakopsora pachyrhizi on Soybean, Preventive Treatment
The compound activity was tested under 1 day preventive conditions. Soybean plants with a fully enfolded first trifoliate leaf were sprayed with a track sprayer and 50 l/ha spray volume with the test compounds, either solo or in tankmix as shown in the table below. 1 day after application leaf discs were cut from the first trifoliate leaf and placed in multiwell plates on water-agar. 5 leaf discs per treatment where infested with spores of a triazole tolerant soybean rust strain. The multiwell plates where sealed and placed in an incubator 48 h in darkness and 12 h light/dark cycle afterwards. Rust infestation on leaf discs was evaluated visually 11 days after application and average activity calculated in relation to disease severity on untreated check leaf discs.
The following compounds gave at 200 ppm gave at least 80% disease control in this test when compared to untreated control leaf disks under the same conditions, which show extensive disease development: […]

[2] = tested on: Puccinia recondita f. sp. tritici; assay: Puccinia recondita f. sp. tritici / wheat / leaf disc preventative (brown rust); conditions: foliar, 168 h, wheat leaf segments cv. Kanzler, inoculated 1 day after application, assessed 7-9 days after application, compared to untreated, read-out: disease control
Experimental: Puccinia recondita f. sp. tritici/Wheat/Leaf Disc Preventative (Brown Rust) Wheat leaf segments cv. Kanzler were placed on agar in multiwell plates (24-well format) and sprayed with the formulated test compound diluted in water. The leaf disks were inoculated with a spore suspension of the fungus 1 day after application. The inoculated leaf segments were incubated at 19° C. and 75% rh under a light regime of 12 h light/12 h darkness in a climate cabinet and the activity of a compound was assessed as percent disease control compared to untreated when an appropriate level of disease damage appears in untreated check leaf segments (7-9 days after application). The following compounds gave at 200 ppm gave at least 80% disease control in this test when compared to untreated control leaf disks under the same conditions, which show extensive disease development: […]

[3] = tested on: Puccinia recondita f. sp. tritici; assay: Puccinia recondita f. sp. tritici / wheat / leaf disc curative (brown rust); conditions: foliar, wheat leaf segments cv. Kanzler, compound applied 1 day after inoculation, assessed 6-8 days after application, compared to untreated, read-out: disease control
Experimental: Puccinia recondita f. sp. tritici/Wheat/Leaf Disc Curative (Brown Rust) Wheat leaf segments cv. Kanzler are placed on agar in multiwell plates (24-well format). The leaf segments are inoculated with a spore suspension of the fungus. Plates were stored in darkness at 19° C. and 75% rh. The formulated test compound diluted in water was applied 1 day after inoculation. The leaf segments were incubated at 19° C. and 75% rh under a light regime of 12 h light/12 h darkness in a climate cabinet and the activity of a compound was assessed as percent disease control compared to untreated when an appropriate level of disease damage appears in untreated check leaf segments (6-8 days after application). The following compounds gave at 200 ppm gave at least 80% disease control in this test when compared to untreated control leaf disks under the same conditions, which show extensive disease development: […]

[4] = tested on: Blumeria graminis f. Sp. tritici (Erysiphe graminis f. sp. tritici); assay: Blumeria graminis f. sp. tritici / wheat / leaf disc preventative (powdery mildew on wheat); conditions: foliar, wheat leaf segments cv. Kanzler, inoculated 1 day after application, assessed 6-8 days after application, compared to untreated, read-out: disease control
Experimental: Blumeria graminis f. Sp. tritici (Erysiphe graminis f. sp. tritici)/Wheat/Leaf Disc Preventative (Powdery Mildew on Wheat) Wheat leaf segments cv. Kanzler were placed on agar in a multiwell plate (24-well format) and sprayed with the formulated test compound diluted in water. The leaf disks were inoculated by shaking powdery mildew infected plants above the test plates 1 day after application. The inoculated leaf disks were incubated at 20° C. and 60% rh under a light regime of 24 h darkness followed by 12 h light/12 h darkness in a climate chamber and the activity of a compound was assessed as percent disease control compared to untreated when an appropriate level of disease damage appears on untreated check leaf segments (6-8 days after application). The following compounds gave at 200 ppm give at least 80% disease control in this test when compared to untreated control leaf disks under the same conditions, which show extensive disease development: […]

Measured: pest or weed control at 200 ppm

CCCOCC(C)Oc1nc(C)c(/N=C/N(C)CC)cc1Br (stereo in doubt) [Q.002, N′-[5-bromo-2-methyl-6-[(1S)-1-methyl-2-propoxy-ethoxy]-3-pyridyl]-N-ethyl-N-methyl-formamidine]
≥ 80%: all assays above

CCCOCC(C)Oc1nc(C)c(/N=C/N(C)CC)cc1C#N (centres unmarked) [Q.007, N′-[5-cyano-2-methyl-6-(1-methyl-2-propoxy-ethoxy)-3-pyridyl]-N-ethyl-N-methyl-formamidine]
≥ 80%: all assays above

CCCOCC(C)Oc1nc(C)c(N=CN(C)CC)cc1C(F)F (centres unmarked) [Q.009, N′-[5-(difluoromethyl)-2-methyl-6-(1-methyl-2-propoxy-ethoxy)-3-pyridyl]-N-ethyl-N-methyl-formamidine]
≥ 80%: all assays above

CCCOCC(C)Oc1nc(C)c(N=CN(C)CC)cc1OC(F)F (centres unmarked) [Q.010, N′-[5-(difluoromethoxy)-2-methyl-6-(1-methyl-2-propoxy-ethoxy)-3-pyridyl]-N-ethyl-N-methyl-formamidine]
≥ 80%: all assays above

CCCOCC(C)Oc1nc(C)c(N=CN(C)CC)cc1C (centres unmarked) [Q.011, N′-[2,5-dimethyl-6-(1-methyl-2-propoxy-ethoxy)-3-pyridyl]-N-ethyl-N-methyl-formamidine]
≥ 80%: all assays above

CCCOCC(C)Oc1ccc(N=CN(C)CC)c(C)n1 (centres unmarked) [Q.012, N-ethyl-N-methyl-N′-[2-methyl-6-(1-methyl-2-propoxy-ethoxy)-3-pyridyl]formamidine]
≥ 80%: [1] | [3]

CCCOCC(C)Oc1nc(C)c(/N=C/N(C)CC)cc1Br (centres unmarked) [Q.013, N′-[5-bromo-2-methyl-6-(1-methyl-2-propoxy-ethoxy)-3-pyridyl]-N-ethyl-N-methyl-formamidine]
≥ 80%: all assays above

C=CCOCC(C)Oc1nc(C)c(N=CN(C)CC)cc1Cl (centres unmarked) [Q.014, N′-[6-(2-allyloxy-1-methyl-ethoxy)-5-chloro-2-methyl-3-pyridyl]-N-ethyl-N-methyl-formamidine]
≥ 80%: all assays above

CCCOCC(C)Oc1nc(C)c(/N=C/N(C)CC)cc1Cl (centres unmarked) [Q.015, N′-[5-chloro-2-methyl-6-(1-methyl-2-propoxy-ethoxy)-3-pyridyl]-N-ethyl-N-methyl-formamidine]
≥ 80%: all assays above

C=CCOCC(COC)Oc1nc(C)c(N=CN(C)CC)cc1Br (centres unmarked) [Q.016, N′-[6-[1-(allyloxymethyl)-2-methoxy-ethoxy]-5-bromo-2-methyl-3-pyridyl]-N-ethyl-N-methyl-formamidine]
≥ 80%: all assays above

C=CCOCC(C)Oc1nc(C)c(N=CN(C)CC)cc1C#N (centres unmarked) [Q.017, N′-[6-(2-allyloxy-1-methyl-ethoxy)-5-cyano-2-methyl-3-pyridyl]-N-ethyl-N-methyl-formamidine]
≥ 80%: all assays above

CCCOCC(C)Oc1nc(C)c(N=CN(C)C(C)C)cc1Br (centres unmarked) [Q.018, N′-[5-bromo-2-methyl-6-(1-methyl-2-propoxy-ethoxy)-3-pyridyl]-N-isopropyl-N-methyl-formamidine]
≥ 80%: all assays above

CCCOCC(C)Oc1nc(C)c(/N=C/N(C)CC)cc1C(=O)OC (centres unmarked) [Q.019, Methyl 5-[(E)-[ethyl(methyl)amino]methylene-amino]-6-methyl-2-(1-methyl-2-propoxy-ethoxy)pyridine-3-carboxylate]
≥ 80%: [1] | [3]

CCN(C)C=Nc1cc(C#N)c(OC(C)COc2cccc(C(F)(F)F)c2)nc1C (centres unmarked) [Q.020, N′-[5-cyano-2-methyl-6-[1-methyl-2-[3-(trifluoromethyl)phenoxy]ethoxy]-3-pyridyl]-N-ethyl-N-methyl-formamidine]
≥ 80%: all assays above

CCN(C)C=Nc1cc(C#N)c(OC(C)COc2ccc(Cl)cc2)nc1C (centres unmarked) [Q.021, N′-[6-[2-(4-chlorophenoxy)-1-methyl-ethoxy]-5-cyano-2-methyl-3-pyridyl]-N-ethyl-N-methyl-formamidine]
≥ 80%: [2] | [3] | [4]

CCN(C)C=Nc1cc(C#N)c(OC(C)COc2ccccc2)nc1C (centres unmarked) [Q.022, N′-[5-cyano-2-methyl-6-(1-methyl-2-phenoxy-ethoxy)-3-pyridyl]-N-ethyl-N-methyl-formamidine]
≥ 80%: [2] | [3] | [4]

CCN(C)C=Nc1cc(Cl)c(OC(C)COc2cccc(C(F)(F)F)c2)nc1C (centres unmarked) [Q.023, N′-[5-chloro-2-methyl-6-[1-methyl-2-[3-(trifluoromethyl)phenoxy]ethoxy]-3-pyridyl]-N-ethyl-N-methyl-formamidine]
≥ 80%: all assays above

CCN(C)C=Nc1cc(Cl)c(OC(C)COc2ccc(Cl)cc2)nc1C (centres unmarked) [Q.024, N′-[5-chloro-6-[2-(4-chlorophenoxy)-1-methyl-ethoxy]-2-methyl-3-pyridyl]-N-ethyl-N-methyl-formamidine]
≥ 80%: all assays above

CCN(C)C=Nc1cc(Cl)c(OC(C)COc2ccccc2)nc1C (centres unmarked) [Q.025, N′-[5-chloro-2-methyl-6-(1-methyl-2-phenoxy-ethoxy)-3-pyridyl]-N-ethyl-N-methyl-formamidine]
≥ 80%: all assays above

CCN(C)C=Nc1cc(Br)c(OC(C)COc2ccc(Cl)cc2)nc1C (centres unmarked) [Q.026, N′-[5-bromo-6-[2-(4-chlorophenoxy)-1-methyl-ethoxy]-2-methyl-3-pyridyl]-N-ethyl-N-methyl-formamidine]
≥ 80%: all assays above

CCN(C)C=Nc1cc(Br)c(OC(C)COc2cccc(C(F)(F)F)c2)nc1C (centres unmarked) [Q.027, N′-[5-bromo-2-methyl-6-[1-methyl-2-[3-(trifluoromethyl)phenoxy]ethoxy]-3-pyridyl]-N-ethyl-N-methyl-formamidine]
≥ 80%: [1] | [3] | [4]
